Tests used:
[1] = system: HeLaCAIX^WT versus HeLaCAIX^KO tumors; assay: NIR imaging of HeLa xenograft tumors in nude mice; format: in vivo; conditions: for compound uptake in HeLaCAIX^WT tumors compared to HeLaCAIX^KO tumors: I.V. 2 mg/kg once, imaged every 24 h
Description: The HeLaCAIX^WT and HeLaCAIX^KO cells were injected subcutaneously (S.Q.) into opposite flanks of nude mice, 3 × 10^6 cells per injection. Once tumors reached the palpable size, we performed imaging using the UVITEC AllianceQ9 Imager system. The images were obtained every 24 h after intravenous (I.V.) compound injection into a tail vein. To analyze fluorescent compound uptake, two best candidate compounds were chosen, AZ21-6 and GZ22-4. Compound GZ22-4 was selected because of the photostability and good quantum yield (Table S1), and the fluorescence maximum of AZ21-6 closely resembled the center of the NIR filter of the imaging system. Both compounds had the best solubility properties and good in vitro binding to cells.
Female nude mice (CR ATH HO Code 24106216), 5–6 weeks old, were obtained from Charles River Laboratories. Animals were housed, bred, and handled in the Department of Animal Models Animal Facility at the Life Sciences Center, Vilnius University, Lithuania, with a 12 h light–dark cycle, at 21–23 °C and 40–60% humidity. Animals were fed with an irradiated cholorophyll-deficient diet (Altromin, #C1086194) and water ad libitum. All experimental procedures conformed to Directive 2010/63/EU requirements and were approved by the Lithuanian State Food and Veterinary Service (Approval no G2-194, 2021-11-09).
Before injection into animals, mycoplasma-free cells in the exponential growth phase were harvested, washed, and resuspended in PBS. 8–12 weeks old female nude mice were inoculated S.Q. with 3 × 10^6 HeLaCAIX^WT cells in 100 μL of PBS into the right flank of the mice, and the same number of HeLaCAIX^KO cells were injected into the left flank of the same mouse. Once tumors reached a suitable size for imaging, GZ22-4 or AZ21-6 compounds were injected I.V. at a dose of 2 mg/kg/dose once. Mice were imaged every 24 h postinjection using isoflurane anesthesia with an Alliance^TM bQ9 Imager system. Images were quantified using the UVIBAND MAX analysis software system. […]

human recombinant CAVB = molecular target: T1, human recombinant CAVB (Homo sapiens, UniProt Q9Y2D0); assay: Fluorescence-based thermal shift assay (FTSA), CAVB; format: binding; conditions: 37 °C, pH 7.0
T1 construct: Most isozymes were truncated, and only the catalytic domains of the proteins were produced; made in house; host or cells: bacterial expression system
Description: The binding affinities of the four NIR-fluorescent compounds to 12 catalytically active recombinant CA isozymes were determined by the fluorescence-based thermal shift assay (FTSA), and the dissociation constants (Kd’s) at physiological pH (pH 7.0) and 37 °C are listed in Table 1.
All 12 catalytically active human CA isozymes were prepared recombinantly as previously described. Most isozymes were truncated, and only the catalytic domains of the proteins were produced.[9],[56] All isozymes were expressed in a bacterial expression system except that CAIX was expressed in mammalian cells. The proteins were chromatographically purified via immobilized metal affinity chromatography, ion-exchange, or p-aminomethylbenzenesulfonamide-sepharose affinity chromatography. Protein purity was confirmed by SDS-PAGE, and MW was confirmed by mass spectrometry with 1 Da precision, as predicted from theoretical protein sequence.
The fluorescence-based thermal shift assay (FTSA) was used to determine the binding affinity of compounds for all catalytically active CA isozymes. […] The CA isozyme melting temperature Tm was determined by following the fluorescence of 8-anilino-1-naphthalenesulfonate (ANS) or Glomelt dye. […]

T1 sequence (Q9Y2D0 37-296 limits assumed): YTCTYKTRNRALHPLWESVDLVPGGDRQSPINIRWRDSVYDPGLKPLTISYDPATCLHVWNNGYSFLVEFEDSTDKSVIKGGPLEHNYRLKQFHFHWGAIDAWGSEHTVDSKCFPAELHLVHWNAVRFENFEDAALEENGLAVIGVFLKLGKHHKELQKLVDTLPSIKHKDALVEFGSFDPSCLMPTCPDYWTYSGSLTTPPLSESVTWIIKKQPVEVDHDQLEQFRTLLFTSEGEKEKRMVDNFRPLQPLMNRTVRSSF

| clearance from nontumor locations ([1]; I.V. 2 mg/kg, daily images) | Kd (human recombinant CAVB) [nM] | SMILES | compound uptake in HeLaCAIX^WT tumors compared to HeLaCAIX^KO tumors [1] |
| --- | --- | --- | --- |
| faster clearance from nontumor locations |  | CC1(C)C(/C=C/C2=C(Oc3ccc(CCC(=O)NCCOCCOCCOCCOCCOCCOCCOCCOCCOCCOCCOCCNC(=O)CCS(=O)(=O)c4c(F)c(F)c(S(N)(=O)=O)c(F)c4NC4CCCCCCC4)cc3)C(=C/C=C3\N(CCCCS(=O)(=O)[O-])c4ccccc4C3(C)C)/CCC2)=[N+](CCCCS(=O)(=O)[O-])c2ccccc21.[Na+] [GZ22-4, Sodium 4-((Z)-2-((E)-2-(2-(4-(43-((2-(Cyclooctylamino)-3,5,6-trifluoro-4-sulfamoylphenyl)sulfonyl)-3,41-dioxo-7,10,13,16,19,22,25,28,31,34,37-undecaoxa-4,40-diazatritetracontyl)phenoxy)-3-((E)-2-(3,3-dimethyl-1-(4-sulfonatobutyl)-3H-indol-1-ium-2-yl)vinyl)cyclohex-2-en-1-ylidene)ethylidene)-3,3-dimethylindolin-1-yl)butane-1-sulfonate] | preferential uptake |
|  | 50 | CC1(C)C(/C=C/C2=C(NCCCOCCOCCOCCCNC(=O)CCC(=O)NCCS(=O)(=O)c3c(F)c(F)c(S(N)(=O)=O)c(F)c3NC3CCCCCCC3)C(=C/C=C3\N(CCCCS(=O)(=O)[O-])c4ccccc4C3(C)C)/CCC2)=[N+](CCCCS(=O)(=O)[O-])c2ccccc21.[Na+] [AZ21-6, Sodium 4-((Z)-2-((E)-2-(2-((1-((2-(Cyclooctylamino)-3,5,6-trifluoro-4-sulfamoylphenyl)sulfonyl)-4,7-dioxo-12,15,18-trioxa-3,8-diazahenicosan-21-yl)amino)-3-((E)-2-(3,3-dimethyl-1-(4-sulfonatobutyl)-3H-indol-1-ium-2-yl)vinyl)cyclohex-2-en-1-ylidene)ethylidene)-3,3-dimethylindolin-1-yl)butane-1-sulfonate] | preferential uptake |

— paper PMC11191402, “High-Affinity NIR-Fluorescent Inhibitors for Tumor Imaging via Carbonic Anhydrase IX” (Bioconjugate Chemistry, 2024)
